Our source for the TGI values is PubChem BioAssay (NCI).

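Method: 48-hour compound exposure of cells in 96-well plates, five concentrations, linear interpolation of endpoints. At the TGI there is no net growth.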 Some results are limits rather than exact numbers.

Assay in all cases: inhibition of tumour cell growth, NCI panel, 48 h
In test [1] the test system is PC-3 prostate.
Test [2] concerns HCC-2998 colon.
Test [3] has as its system SF-268 CNS.
Test [4] deals with NCI-H460 lung.
Test [5] relates to KM12 colon.
The subject of test [6] is SF-539 CNS.
The subject of test [7] is SW-620 colon.
The subject of test [8] is OVCAR-3 ovarian.
The subject of test [9] is NCI-H23 lung.
Test [10] relates to HT29 colon.
Test [11] relates to DU-145 prostate.
The test system of test [12] is MCF7 breast.
The subject of test [13] is EKVX NSCLC.
Test [14] concerns HCT-15 colon.
Test [15] concerns HS 578T breast.
Test [16] concerns SNB-75 CNS.
The test system of test [17] is UO-31 renal.
Test [18] concerns MALME-3M melanoma.
Test [19] concerns RXF 393 renal.
The subject of test [20] is SR leukemia.

With `CC(C)CCNC(=O)C(CC(C)C)NC(=O)[C@H]1O[C@@H]1C(=O)O` (some centres undefined), the TGI in test [1], in [2], in test [3], in test [4], in [5] and in [6] was over 100 µM each time. Moreover, the TGI in test [7], in [8], in test [9], in test [10], in [11] and in test [12] was over 100 µM in each case. In addition, the TGI in test [13], in test [14], in test [15], in test [16], in test [17] and in test [18] was over 100 µM throughout.
For `CC(=O)Nc1cccc(N2C(=O)/C(=C\c3cccc(Oc4ccccc4)c3)S(=O)(=O)C2c2ccccc2)c1` (centres undefined), the TGI in [1] was over 100 µM; in test [2] it was over 100 µM; in test [19], over 100 µM; in test [20], 58.3 µM; in test [4], over 100 µM; in [5], over 100 µM. Moreover, the TGI in test [6], in test [7], in [8], in [9], in [10] and in [11] was over 100 µM throughout. Further, the TGI in test [12], in [13], in test [14], in test [16], in test [17] and in test [18] was over 100 µM throughout.
For `CC(=O)O[C@H]1CC[C@H]2[C@@H]3CCC4=CC(=O)C=C[C@]4(O)[C@H]3CC[C@]12C`, the TGI is over 93.1 µM in [1]; over 100 µM in [2]; 76 µM in [19]; 5.1 µM in [20]; over 100 µM in test [4]; 52.8 µM in [5]. Besides, the TGI in test [6] was over 100 µM; in test [7], over 57.5 µM; in [8], over 100 µM; in test [9], over 62.4 µM; in [11], over 100 µM; in [12], over 83.5 µM. For the same molecule, the TGI was over 80.7 µM in test [13], over 100 µM in test [14], 61.3 µM in test [16] and over 100 µM in test [17].
`COc1ccc(NC(C)=O)cc1N1C(=O)/C(=C\c2ccccc2)SC1c1cc(OC)c(OC)c(OC)c1` (centres undefined): the TGI in test [1] was over 100 µM; in test [2], 47.4 µM; in test [3], 43.9 µM; in test [19], over 100 µM; in test [20], over 100 µM; in [4] it was 44.5 µM. Besides, the TGI in test [5] was 35.8 µM; in test [6], 45.5 µM; in test [7], over 100 µM; in test [8], over 100 µM; in test [9] it was over 100 µM; in [10] it was over 100 µM. Also, the TGI is 80.6 µM in test [11]; over 100 µM in test [12]; over 100 µM in test [13]; 58.8 µM in test [14]; over 100 µM in test [17]; 56.2 µM in [18].
As to `COc1ccc(N2C(=O)C3c4[nH]c5ccccc5c4C4CC(C)(C)CC(C)(C)C4C3C2=O)cc1` (centres undefined), the TGI was over 100 µM in test [2]; 54 µM in test [3]; 33.1 µM in test [19]; 25.7 µM in test [20]; 27.2 µM in test [6]; 71.7 µM in test [7]. The TGI is 33.9 µM in test [9]; over 100 µM in [10]; 38.2 µM in test [13]; over 100 µM in [14]; 34.5 µM in test [16]; over 100 µM in test [17]. The molecule further showed a TGI in test [18] of 36.3 µM.
`CC(c1ccc2c(c1)CCC1C2CC2OC23CC=CC(=O)[C@]13C)C1C[C@]2(C)O[C@]2(C)[C@H](O)O1` (some centres undefined): the TGI in [2] was over 100 µM; in [3] it was over 100 µM; in [19] it was 50.5 µM; in [20], 53.6 µM; in test [4], over 100 µM; in [5], over 100 µM. For the same molecule, the TGI in [6] was over 100 µM; in test [7], over 100 µM; in test [8] it was over 100 µM; in test [9], 25.2 µM; in test [10], over 100 µM; in [13] it was over 100 µM. Further, the TGI in [14], in [16], in [17] and in test [18] was over 100 µM each time.
As to `CCOC(=O)C1(C#N)C(=O)c2cc[n+](CC[n+]3ccc4c(c3)C(=O)C(C#N)(C(=O)OCC)C4=O)cc2C1=O` (centres undefined), the TGI in [1], in [2], in test [3], in test [19], in test [4] and in test [5] was over 100 µM each time. Moreover, the TGI in test [6], in [7], in test [8], in test [9], in test [10] and in test [11] was over 100 µM each time. Further, the TGI in test [12], in [13], in test [14], in test [15], in test [16] and in test [17] was over 100 µM throughout. In addition, in test [18], the TGI was over 100 µM.
As for `CC(O)CN1c2ccccc2Sc2ccccc21` (centres undefined), the TGI in test [1], in test [2], in test [3], in [19], in test [4] and in [5] was over 100 µM in each case. Further, the TGI in test [6], in test [7], in test [8], in test [9], in test [10] and in [11] was over 100 µM in each case. Also, the TGI in test [12], in [13], in test [14], in test [15], in [17] and in [18] was over 100 µM each time.
On to `COc1ccc2[nH]c3c(c2c1)CC(=O)N1CCCC(CC3O)C1` (centres undefined), for which the TGI in [1], in test [2], in [3], in test [4], in test [5] and in test [6] was over 100 µM in each case. In addition, the TGI in test [7], in test [9], in test [10], in test [11], in test [12] and in test [14] was over 100 µM throughout. Further, the TGI in test [15], in test [16], in test [17] and in test [18] was over 100 µM throughout.
Turning to `O=c1[nH]c(=O)n(C2CC(O)C(CO)O2)cc1C(F)(C(F)(F)F)C(F)(F)F` (centres undefined), the TGI in test [3], in test [19], in test [20], in [4], in [5] and in test [6] was over 100 µM throughout. Also, the TGI in [7], in [8], in [9], in [10], in [13] and in [14] was over 100 µM in each case. The TGI in test [16], in test [17] and in test [18] was over 100 µM each time.
As to `CC(=O)NC(Cc1ccccc1)NC(=O)O` (centres undefined), the TGI in test [1], in test [2], in test [3], in [19], in test [20] and in test [4] was over 100 µM each time. Besides, the TGI in test [5], in test [6], in test [7], in test [8], in test [9] and in [10] was over 100 µM throughout. Further, the TGI in [11], in test [12], in [13], in test [14], in [16] and in test [17] was over 100 µM each time. In [18], this molecule gave a TGI of over 100 µM.
In the case of `CCCCCCCCCCCCCCCCCCNc1ccn(C2OC(CO)C(OP(=O)(O)OCC(O)COP(=O)(O)OCC3OC(n4cc(F)c(NCCCCCCCCCCCCCCCCCC)nc4=O)CC3O)C2O)c(=O)n1` (centres undefined), the TGI in [1], in test [2], in [3], in [4], in test [5] and in test [6] was over 50 µM throughout. In addition, the TGI in test [7], in test [8], in [9], in test [10], in [11] and in test [12] was over 50 µM each time. Besides, the TGI in test [13], in test [14], in test [15], in test [16], in test [17] and in test [18] was over 50 µM throughout.
On to `CCOC(=O)CC[C@H](NC(=O)N[C@H](C)c1ccccc1)C(=O)OCC`, for which the TGI in [1] is over 100 µM; in [2], 72.3 µM; in test [20], over 100 µM; in test [4] it was over 100 µM; in [5] it was over 100 µM; in test [6], 45.5 µM. In addition, the TGI in test [7] is over 100 µM; in [8] it was 41.5 µM; in [9], over 100 µM; in test [10], over 100 µM; in [11] it was over 100 µM; in test [12], over 100 µM. For the same molecule, the TGI in test [13], in test [14] and in test [17] was over 100 µM throughout.
With `O=C(NCCC1CN(C(=O)OCc2ccccc2)c2ccccc21)OCc1ccccc1` (centres undefined), the TGI in [1], in test [2], in test [3], in test [19], in test [4] and in test [5] was over 100 µM in each case. The TGI in [7], in test [8], in test [9], in test [10], in test [11] and in [12] was over 100 µM throughout. The TGI in test [13], in test [14], in test [15], in test [16], in [17] and in test [18] was over 100 µM throughout.
With `CC(=O)c1cc2c(s1)C(=O)c1sccc1C2=O`, the TGI in [1] amounted to 0.133 µM; in [2], 0.392 µM; in test [3] it was 0.0889 µM; in [19] it was 0.0919 µM; in test [4] it was 0.211 µM; in [5], 0.332 µM. Further, the TGI in test [6] is 0.0348 µM; in test [7], 0.28 µM; in test [8], 0.0382 µM; in test [9], 0.0378 µM; in [10], 0.426 µM; in test [11] it was 0.0995 µM. Moreover, the TGI amounted to 36.8 µM in test [12]; 0.475 µM in test [13]; 0.0534 µM in [14]; 0.198 µM in test [15]; 0.0491 µM in test [16]; 0.0908 µM in test [17]. In test [18], the TGI was determined as 0.0313 µM.
For the molecule `CCCCN1C(=O)c2c(Br)sc(Br)c2C1=O`, the TGI in test [1] is over 100 µM; in [2] it was over 100 µM; in [3] it was over 100 µM; in [19], over 100 µM; in test [20], 85.6 µM; in test [4] it was over 100 µM. Moreover, the TGI in test [5] was 87.5 µM; in [6], 69.1 µM; in [7], 66.2 µM; in test [9], over 100 µM; in test [10] it was 47.1 µM; in test [11], over 100 µM. Moreover, the TGI in test [12] is over 100 µM; in test [13], over 100 µM; in [14], over 100 µM; in [16] it was 90.5 µM; in test [17] it was over 100 µM; in [18], over 100 µM.
